Where “and” joins values, the source holds several entries; their conditions need not be identical. Equal entries are not always repeated. After the bases stand the sugars from the 5' end (letter, count) and the backbone: PS all phosphorothioate, else s phosphorothioate and o phosphodiester by linkage. Methylation of C is not given here. e = 2'-O-(2-methoxyethyl) (MOE); k = constrained ethyl (cEt); d = 2'-deoxy (DNA)
target: IRF4; settings: ASO, MM.1R, 0.0625 µM

Sequence | target mRNA inhibition
ACCATATTGGAAACCA (sugars k3 d10 k3, PS) | -12%

same assay, conditions: ASO, MM.1R, 0.074 µM

Sequence | target mRNA inhibition
ACCATATTGGAAACCA (sugars k3 d10 k3, PS) | -11%

same assay, conditions: ASO, MM.1R, 0.222 µM

Sequence | target mRNA inhibition
ACCATATTGGAAACCA (sugars k3 d10 k3, PS) | -18%

same assay, conditions: ASO, MM.1R, 0.25 µM

Sequence | target mRNA inhibition
ACCATATTGGAAACCA (sugars k3 d10 k3, PS) | -6%

same assay, conditions: ASO, MM.1R, 0.666 µM

Sequence | target mRNA inhibition
ACCATATTGGAAACCA (sugars k3 d10 k3, PS) | -1%

same assay, conditions: ASO, MM.1R, 1 µM

Sequence | target mRNA inhibition
ACACTTTTAGAGAGGA (sugars e1 k2 d9 k2 e2, PS) | 29%
ACACTTTTAGAGAGGA (sugars k3 d9 k3 e1, PS) | 29%
ACACTTTTAGAGAGGA (sugars kddddddddddkekek, PS) | -6%
ACACTTTTAGAGAGGA (sugars kdddddddddkekeke, PS) | 6%
ACACTTTTAGAGAGGA (sugars kkkddddddddkekek, PS) | 15%
ACAGAGAGTCCGACGC (sugars k3 d10 k3, PS) | -8%
ACAGATGGCATGCGAA (sugars k3 d10 k3, PS) | 19%
ACAGCCGAAGCATTTT (sugars k3 d10 k3, PS) | 8%
ACAGTGACTTGCATCC (sugars kkdddddddddkekek, PS) | 32%
ACCATATTGGAAACCA (sugars k3 d10 k3, PS) | 3%
ACCCAAATGTGGAGCT (sugars k3 d10 k3, PS) | 3%
ACCCACGAAGATTCAA (sugars k3 d10 k3, PS) | -17%
ACCGACTCTTTTTTTA (sugars k3 d10 k3, PS) | -2%
ACCTCAGTTTGTGAAG (sugars k2 d9 e3 k2, PS) | 4%
ACCTCAGTTTGTGAAG (sugars kkddddddddddkeke, PS) | -12%
ACCTCAGTTTGTGAAG (sugars kkdddddddddekeke, PS) | 13%
ACCTCAGTTTGTGAAG (sugars kkdddddddddkdkdk, PS) | -3%

same assay, conditions: ASO, MM.1R, 2 µM

Sequence | target mRNA inhibition
ACCATATTGGAAACCA (sugars k3 d10 k3, PS) | 13%

same assay, conditions: ASO, MM.1R, 4 µM

Sequence | target mRNA inhibition
ACCATATTGGAAACCA (sugars k3 d10 k3, PS) | 34%

same assay, conditions: ASO, SK-MEL-28, 4 µM

Sequence | target mRNA inhibition
ACAAGCTGGGCCTTGC (sugars k3 d10 k3, PS) | 27%
ACAATAAAATGTCACG (sugars k3 d10 k3, PS) | 29%
ACAATACTGTAAGGGC (sugars k3 d10 k3, PS) | 75% and 68%
ACACAAGTGGCCTTCC (sugars k3 d10 k3, PS) | 31%
ACACACAAGTGGCCTT (sugars k3 d10 k3, PS) | 44%
ACACACCAGGTTAAAC (sugars k3 d10 k3, PS) | 12%
ACACACCTGACAACCA (sugars k3 d10 k3, PS) | 36%
ACACAGCCTCGCCCTC (sugars k3 d10 k3, PS) | 20%
ACACTTTGTACGGGTC (sugars k3 d10 k3, PS) | 56%
ACAGAGCCAACTTATA (sugars k3 d10 k3, PS) | 6%
ACAGGCACGGCTTCAG (sugars k3 d10 k3, PS) | 64%
ACAGTAAGAGGGCAGT (sugars k3 d10 k3, PS) | 84%
ACATAACTCAGGCAAG (sugars k3 d10 k3, PS) | 1%
ACCAACGACAGCATAG (sugars k3 d10 k3, PS) | 67%
ACCAATTTATGCCATG (sugars k3 d10 k3, PS) | 17%
ACCATATTGGAAACCA (sugars k3 d10 k3, PS) | 74%
ACCATGTTCCTGAAGA (sugars k3 d10 k3, PS) | 44%
ACCATTACTTAGACAT (sugars k3 d10 k3, PS) | 65%
ACCATTCAGACAGATG (sugars k3 d10 k3, PS) | 30%
ACCCAATAGTCTAGCT (sugars k3 d10 k3, PS) | 25%
ACCCACCCAGTGTCTG (sugars k3 d10 k3, PS) | 18%
ACCCAGTGGTAGGTAG (sugars k3 d10 k3, PS) | 30%
ACCCATTTAATCTGTC (sugars k3 d10 k3, PS) | 57%
ACCCTCCCCAACTTAA (sugars k3 d10 k3, PS) | 10%
ACCTAATCTACAACAA (sugars k3 d10 k3, PS) | 17%

Source: the OligoGym collection
